Patent publication US6924283B2, “4-thioxo-4,7-dihydro-thieno[2,3-b]pyridine-5-carbothioamides as antiviral agents” (Pfizer, priority 2001, dated 2005)

Columns and labels:
Type in all cases: biochemical
HCMV polymerase = molecular target: T1, HCMV polymerase (Human cytomegalovirus, UniProt P08546); experiment: HCMV polymerase scintillation proximity assay (modified version); conditions: modified SPA assay, compounds diluted in 100% DMSO, 4.5 mM DTT
T1 construct: made in house; host or cells: recombinant baculovirus-infected SF-9 cells
T1 sequence (P08546 whole entry): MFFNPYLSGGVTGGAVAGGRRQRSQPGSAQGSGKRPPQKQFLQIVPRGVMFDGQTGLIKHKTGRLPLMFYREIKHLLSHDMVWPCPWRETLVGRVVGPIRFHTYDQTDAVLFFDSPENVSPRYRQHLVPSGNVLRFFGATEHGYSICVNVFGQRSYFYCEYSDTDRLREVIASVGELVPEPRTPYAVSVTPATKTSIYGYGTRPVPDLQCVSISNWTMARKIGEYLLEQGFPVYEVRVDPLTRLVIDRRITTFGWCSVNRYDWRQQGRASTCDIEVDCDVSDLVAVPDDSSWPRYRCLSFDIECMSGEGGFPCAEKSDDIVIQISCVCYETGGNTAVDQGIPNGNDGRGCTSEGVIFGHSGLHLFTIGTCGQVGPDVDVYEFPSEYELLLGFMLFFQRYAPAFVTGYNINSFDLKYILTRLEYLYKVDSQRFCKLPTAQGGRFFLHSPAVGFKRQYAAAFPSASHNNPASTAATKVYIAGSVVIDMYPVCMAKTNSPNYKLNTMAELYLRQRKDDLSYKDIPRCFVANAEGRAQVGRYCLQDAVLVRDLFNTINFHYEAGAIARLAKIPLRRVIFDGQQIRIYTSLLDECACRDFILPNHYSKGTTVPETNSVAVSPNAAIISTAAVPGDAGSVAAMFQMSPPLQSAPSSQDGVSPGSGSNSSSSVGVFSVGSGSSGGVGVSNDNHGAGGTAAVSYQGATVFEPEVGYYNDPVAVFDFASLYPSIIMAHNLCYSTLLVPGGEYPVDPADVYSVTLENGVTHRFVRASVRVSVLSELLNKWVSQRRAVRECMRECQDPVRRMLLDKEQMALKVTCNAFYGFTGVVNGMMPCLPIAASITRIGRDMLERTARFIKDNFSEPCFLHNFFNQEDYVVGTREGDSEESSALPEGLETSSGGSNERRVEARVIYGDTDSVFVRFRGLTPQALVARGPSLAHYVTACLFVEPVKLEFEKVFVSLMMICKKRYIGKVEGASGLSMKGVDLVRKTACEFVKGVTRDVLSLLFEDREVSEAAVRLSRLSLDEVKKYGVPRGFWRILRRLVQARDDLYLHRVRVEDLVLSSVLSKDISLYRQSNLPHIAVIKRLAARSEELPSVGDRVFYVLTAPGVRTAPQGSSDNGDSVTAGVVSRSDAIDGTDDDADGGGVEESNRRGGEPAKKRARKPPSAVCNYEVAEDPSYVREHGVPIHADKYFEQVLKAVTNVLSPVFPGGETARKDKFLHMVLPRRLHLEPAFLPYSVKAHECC
Description: The HCMV polymerase assay is performed using a scintillation proximity assay (SPA) as described in several references, such as N. D. Cook, et al., Pharmaceutical Manufacturing International, pages 49-53 (1992); K. Takeuchi, Laboratory Practice, September issue (1992); U.S. Pat. No. 4,568,649 (1986); which are incorporated by reference herein. Reactions are performed in 96-well plates. The assay is conducted in 100 μl volume with 5.4 mM HEPES (pH 7.5), 11.7 mM KCl, 4.5 mM MgCl2, 0.36 mg/ml BSA, and 90 nM ^3H-dTTP. Assays are run with and without CHAPS, (3-[(3-cholamidopropyl)-dimethylammonio]-1-propane-sulfonate) at a final concentration of 2 mM. HCMV polymerase is diluted in enzyme dilution buffer containing 50% glycerol, 250 mM NaCl, 10 mM HEPES (pH 7.5), 100 μg/ml BSA, and 0.01% sodium azide. […] Plates are incubated 10 min. at 37° C., then equilibrated to room temperature, and counted on a Packard Topcount. Linear regressions are performed and IC50's are calculated using computer software.
A modified version of the above HCMV polymerase assay is performed as described above, but with the following changes: Compounds are diluted in 100% DMSO until final dilution into assay buffer. […] In Table 1, the term “nd” refers to activity data not determined.

HSV polymerase = HSV polymerase (Human herpesvirus 1, UniProt P04293); experiment: HSV polymerase assay (Table 1)
Sequence of HSV polymerase (P04293 whole entry): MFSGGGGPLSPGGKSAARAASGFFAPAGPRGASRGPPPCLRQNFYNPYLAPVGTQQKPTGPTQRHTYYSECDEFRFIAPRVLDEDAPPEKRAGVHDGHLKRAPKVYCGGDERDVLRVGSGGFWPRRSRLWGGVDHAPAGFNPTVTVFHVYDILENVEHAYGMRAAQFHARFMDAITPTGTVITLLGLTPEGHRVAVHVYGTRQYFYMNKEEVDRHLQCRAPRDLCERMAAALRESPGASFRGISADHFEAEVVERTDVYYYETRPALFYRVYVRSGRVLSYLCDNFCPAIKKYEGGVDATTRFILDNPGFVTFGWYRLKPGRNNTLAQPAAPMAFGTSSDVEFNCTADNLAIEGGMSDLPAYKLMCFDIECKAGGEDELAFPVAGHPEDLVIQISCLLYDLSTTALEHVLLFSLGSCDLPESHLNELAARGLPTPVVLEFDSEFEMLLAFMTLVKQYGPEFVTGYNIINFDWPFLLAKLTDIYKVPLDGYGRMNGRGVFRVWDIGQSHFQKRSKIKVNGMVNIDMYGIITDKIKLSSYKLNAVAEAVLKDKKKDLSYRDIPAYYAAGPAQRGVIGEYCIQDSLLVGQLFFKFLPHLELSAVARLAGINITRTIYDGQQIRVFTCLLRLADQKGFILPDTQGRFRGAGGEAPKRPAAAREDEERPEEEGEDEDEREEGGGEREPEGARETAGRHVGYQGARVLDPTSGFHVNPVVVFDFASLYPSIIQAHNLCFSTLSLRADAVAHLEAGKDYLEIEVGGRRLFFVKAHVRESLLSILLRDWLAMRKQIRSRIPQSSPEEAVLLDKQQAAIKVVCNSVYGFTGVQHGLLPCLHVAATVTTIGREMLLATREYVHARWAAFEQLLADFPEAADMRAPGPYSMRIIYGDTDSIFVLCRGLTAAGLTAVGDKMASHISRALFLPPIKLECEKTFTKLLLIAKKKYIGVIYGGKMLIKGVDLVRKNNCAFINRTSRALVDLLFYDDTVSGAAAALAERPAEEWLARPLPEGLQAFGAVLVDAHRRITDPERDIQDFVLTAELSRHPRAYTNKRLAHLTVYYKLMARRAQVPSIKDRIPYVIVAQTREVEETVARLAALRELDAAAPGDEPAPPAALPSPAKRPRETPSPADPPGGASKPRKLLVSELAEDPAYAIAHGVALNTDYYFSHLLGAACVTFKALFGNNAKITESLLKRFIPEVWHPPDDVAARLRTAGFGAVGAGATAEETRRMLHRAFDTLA

VZV polymerase = VZV polymerase (Varicella-zoster virus, UniProt P09252); experiment: VZV polymerase assay (Table 1)
Sequence of VZV polymerase (P09252 whole entry): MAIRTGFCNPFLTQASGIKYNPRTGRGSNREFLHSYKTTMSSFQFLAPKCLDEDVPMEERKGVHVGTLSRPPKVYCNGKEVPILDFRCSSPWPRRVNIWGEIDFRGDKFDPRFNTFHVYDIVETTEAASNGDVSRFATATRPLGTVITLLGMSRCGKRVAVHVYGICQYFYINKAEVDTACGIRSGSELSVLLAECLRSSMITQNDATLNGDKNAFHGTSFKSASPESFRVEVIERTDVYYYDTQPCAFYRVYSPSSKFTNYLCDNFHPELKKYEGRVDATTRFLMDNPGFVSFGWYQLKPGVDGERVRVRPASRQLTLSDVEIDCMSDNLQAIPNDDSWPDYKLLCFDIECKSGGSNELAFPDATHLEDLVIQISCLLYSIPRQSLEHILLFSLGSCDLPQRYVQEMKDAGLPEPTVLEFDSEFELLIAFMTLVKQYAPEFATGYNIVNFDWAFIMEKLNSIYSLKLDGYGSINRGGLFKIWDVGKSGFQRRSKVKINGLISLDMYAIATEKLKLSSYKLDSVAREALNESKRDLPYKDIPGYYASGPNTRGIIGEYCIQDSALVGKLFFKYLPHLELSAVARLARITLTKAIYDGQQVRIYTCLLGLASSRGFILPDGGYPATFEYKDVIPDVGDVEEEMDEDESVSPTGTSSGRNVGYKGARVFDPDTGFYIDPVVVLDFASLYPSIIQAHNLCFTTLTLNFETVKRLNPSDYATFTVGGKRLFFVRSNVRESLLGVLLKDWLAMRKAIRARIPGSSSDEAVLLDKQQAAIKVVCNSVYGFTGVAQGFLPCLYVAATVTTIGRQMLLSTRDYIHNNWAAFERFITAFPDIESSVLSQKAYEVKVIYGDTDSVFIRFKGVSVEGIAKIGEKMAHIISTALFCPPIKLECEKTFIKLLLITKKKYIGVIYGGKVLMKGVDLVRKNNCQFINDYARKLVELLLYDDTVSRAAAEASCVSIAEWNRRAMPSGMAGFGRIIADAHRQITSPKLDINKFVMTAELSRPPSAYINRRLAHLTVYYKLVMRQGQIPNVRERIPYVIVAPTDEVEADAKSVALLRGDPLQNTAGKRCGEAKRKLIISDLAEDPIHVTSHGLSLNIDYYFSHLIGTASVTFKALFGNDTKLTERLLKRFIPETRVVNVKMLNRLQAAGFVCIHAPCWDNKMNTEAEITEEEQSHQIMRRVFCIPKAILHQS

IC50 (HCMV polymerase): 910 nM
IC50 (HSV polymerase): 360 nM
IC50 (VZV polymerase): 130 nM
SMILES: Cn1cc(C(=S)NCc2ccc(Cl)cc2)c(=S)c2cc(CN3CCOCC3)sc21 [Example 1, N-(4-Chlorobenzyl)-7-methyl-2-(4-morpholinylmethyl)-4-thioxo-4,7-dihydrothieno[2,3-b]pyridine-5-carbothioamide]
